Reference: patent US12729192B2, “CDK9 inhibitor and use thereof” (PHARMABLOCK SCIENCES (NANJING), INC., priority 2020, dated 2026)
Where two headings read alike, the source gives them in different places.

What was measured:
[1] = biological target: T1, CDK7 (Homo sapiens, UniProt P50613); experiment: CDK7 kinase activity inhibition (ADP-Glo); format: biochemical; settings: 10 μM ATP, 2 h at room temperature
T1 construct: purchased Carna Biosciences, Inc
Description: (§1) CDK9 kinase was manufactured by the company or commercially available. CDK1, CDK2 and CDK7 were purchased from Carna Biosciences, Inc. ADP-Glo™ kit was purchased from Promega Corporation. Dithiothreitol (DTT), Tween-20, dimethylsulfoxide (DMSO), bovine serum albumin (BSA) and Tris base were obtained from Sigma at the available highest level of purity.
(§2) General procedures for CDK inhibition determination: The determination was performed in a buffer consisting of 50 μM DTT, 0.1% BSA, 40 mM Tris-HCl pH=7.5 and 20 mM MgCl2. The compound dissolved in DMSO and CDK enzymes were diluted with the buffer. 1 μL of the compound solution in 5% DMSO and 2 μL of the CDK enzyme solution were added to a white low-volume 384-well microtiter plate and incubated for 20 min at room temperature. Ultra pure ATP and the substrate polypeptide (purchased from GenScript Biotech Corporation) were diluted together into the buffer and added to a mixed solution of the compound and the enzyme, 2 μL per well. They were incubated for 2 h at room temperature.
(§3) After the reaction was completed, 5 μL of ADP-Glo™ reagent was added to each well and incubated for 40 min at room temperature, and then 10 μL of test reagent was added to each well and incubated for 30 mi at room temperature. Chemical luminescence values were measured by using a Tecan (Männedorf, Switzerland) multifunctional plate reader Spark for plate reading. The IC50 value of the inhibitor was obtained by fitting the chemical luminescence intensity ratio in the S-shaped dosage reaction curve using Prism 7 (La Jolla, 15 CA) relative to the concentration of the inhibitor.

[2] = biological target: T2, CDK2 (Homo sapiens, UniProt P24941); experiment: CDK2 kinase activity inhibition (ADP-Glo); format: biochemical; settings: 10 μM ATP, 2 h at room temperature
T2 construct: purchased Carna Biosciences, Inc
Description: as §1, §2, §3

[3] = biological target: T3, CDK1 (Homo sapiens, UniProt P06493); experiment: CDK1 kinase activity inhibition (ADP-Glo); format: biochemical; settings: 50 μM ATP, 2 h at room temperature
T3 construct: purchased Carna Biosciences, Inc
T3 sequence (P06493 whole entry): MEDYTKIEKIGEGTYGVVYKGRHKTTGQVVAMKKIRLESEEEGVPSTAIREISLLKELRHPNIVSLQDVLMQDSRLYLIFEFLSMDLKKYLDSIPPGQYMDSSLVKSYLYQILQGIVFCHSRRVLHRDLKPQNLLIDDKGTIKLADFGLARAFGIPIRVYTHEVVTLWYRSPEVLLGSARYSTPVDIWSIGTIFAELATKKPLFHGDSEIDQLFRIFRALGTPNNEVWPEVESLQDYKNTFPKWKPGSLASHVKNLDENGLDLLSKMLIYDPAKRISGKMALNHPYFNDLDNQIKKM
T3 sequence (P14635 whole entry partner): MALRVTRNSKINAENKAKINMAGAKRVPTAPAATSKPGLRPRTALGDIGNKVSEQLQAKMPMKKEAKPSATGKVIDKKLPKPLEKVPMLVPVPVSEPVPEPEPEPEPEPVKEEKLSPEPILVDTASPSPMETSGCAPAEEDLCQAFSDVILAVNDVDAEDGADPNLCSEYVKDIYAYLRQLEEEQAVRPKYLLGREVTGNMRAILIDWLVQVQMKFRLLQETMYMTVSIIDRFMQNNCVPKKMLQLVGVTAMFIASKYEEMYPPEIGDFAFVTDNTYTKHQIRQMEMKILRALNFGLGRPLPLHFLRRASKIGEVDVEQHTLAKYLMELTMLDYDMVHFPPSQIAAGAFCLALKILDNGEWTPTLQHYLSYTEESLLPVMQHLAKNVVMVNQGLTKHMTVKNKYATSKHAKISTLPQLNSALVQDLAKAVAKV
Description: as §1, §2, §3

[4] = tested on: MOLM-13 cells; experiment: Tumor cell proliferation inhibition experiment (CellTiter-Glo); format: cell-based; settings: Homo sapiens, read-out: MOLM-13 (nM) IC50, cell proliferation inhibition
Source text: An acute myeloid leukemia (AML) cell line (MOLM-13) was purchased from NANJING COBIOER BIOSCIENCES CO., LTD. An RPMI1640 medium and a penicillin-streptomycin double-antibody were purchased from ThermoFisher (Waltham, MA, USA). Certified fetal bovine serum (FBS) was purchased from Biological Industries (Israel). A Corning 384-well cell culture plate was purchased from CORNING (USA). Cell-Titer Glo® was purchased from Promega Corporation (Madison, WI, USA).
To evaluate the ability of the synthetic compound to inhibit the proliferation of MOLM-13 cells, MOLM-13 cells at an exponential growth stage were inoculated at a density of 500,000 cell/mL in the RPMI1640 medium containing 20% bovine serum and 1% penicillin-streptomycin double-antibody, and the 384-well plate contained 20 μL per well and placed overnight in an 37° C., 5% CO2 incubator. Compound powder was dissolved in DMSO to prepare a storage mother liquor with a concentration of 2 mM, and 12 dilutions with three-fold gradient concentrations were further prepared. 1 μL of gradient-diluted DMSO solution was added to 99 μL of cell culture medium (the final maximum concentration of the compound in the assay was 10 uM and the final concentration of DMSO was 0.5%). 20 μL of compound solution in the medium was added at gradients to each cell-coated test well of the 384-well plate. After the compound solution was added, the 384-well plate was incubated for 16 h in a 37° C., 5% CO2 incubator. Cell viability was determined by quantifying ATPs present in test wells using the CellTiter-Glo kit from Promega (Madison, WI, USA). After 20 minutes of incubation, readings were obtained under a chemical luminescence procedure using Tecan's Spark multifunctional plate reader. The concentration (IC50 value) of the compound at which the cell survival rate was inhibited by 50% was determined using an S-shaped dosage response model (variable slope, four parameters) in Prism 7 (LaJolla, CA).

[5] = biological target: CDK9 (Homo sapiens, UniProt P50750); experiment: CDK9 kinase activity inhibition (ADP-Glo); format: biochemical; settings: 10 μM ATP, 2 h at room temperature
Sequence of CDK9 (P50750 whole entry): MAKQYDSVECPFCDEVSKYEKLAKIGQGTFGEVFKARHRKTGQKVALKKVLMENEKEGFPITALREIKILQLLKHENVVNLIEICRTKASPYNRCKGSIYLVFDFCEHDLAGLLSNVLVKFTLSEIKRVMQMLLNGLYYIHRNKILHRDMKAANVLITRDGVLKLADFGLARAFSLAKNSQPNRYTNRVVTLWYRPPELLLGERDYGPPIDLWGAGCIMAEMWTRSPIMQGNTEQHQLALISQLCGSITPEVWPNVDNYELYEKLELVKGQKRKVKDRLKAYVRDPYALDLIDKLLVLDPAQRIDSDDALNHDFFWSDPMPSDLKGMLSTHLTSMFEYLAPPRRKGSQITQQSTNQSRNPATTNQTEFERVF
Sequence of CDK9 (O60563 whole entry partner): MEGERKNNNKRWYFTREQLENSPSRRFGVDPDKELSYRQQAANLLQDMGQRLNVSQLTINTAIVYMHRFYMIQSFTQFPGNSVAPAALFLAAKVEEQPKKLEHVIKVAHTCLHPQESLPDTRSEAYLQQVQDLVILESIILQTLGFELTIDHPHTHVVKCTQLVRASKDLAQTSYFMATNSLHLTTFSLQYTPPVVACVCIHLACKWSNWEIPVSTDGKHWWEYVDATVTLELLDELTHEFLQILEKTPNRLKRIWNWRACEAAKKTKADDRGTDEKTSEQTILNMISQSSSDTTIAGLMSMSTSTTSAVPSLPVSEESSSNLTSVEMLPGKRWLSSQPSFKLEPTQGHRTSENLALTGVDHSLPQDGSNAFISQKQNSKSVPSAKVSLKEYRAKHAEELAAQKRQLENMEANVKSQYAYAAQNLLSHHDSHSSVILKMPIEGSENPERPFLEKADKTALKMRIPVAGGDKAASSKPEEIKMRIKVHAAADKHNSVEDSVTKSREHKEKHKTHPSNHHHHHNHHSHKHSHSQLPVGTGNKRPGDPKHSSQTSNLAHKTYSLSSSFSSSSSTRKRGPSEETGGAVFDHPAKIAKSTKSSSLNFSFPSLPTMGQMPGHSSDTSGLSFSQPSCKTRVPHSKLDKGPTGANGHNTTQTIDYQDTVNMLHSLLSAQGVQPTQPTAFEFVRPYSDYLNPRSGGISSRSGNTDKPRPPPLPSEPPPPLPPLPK
Description: as §1, §2, §3

[6] = acute myeloid leukemia cell line MOLM-13, 16 h incubation, CellTiter-Glo

T1 sequence (P50613 whole entry): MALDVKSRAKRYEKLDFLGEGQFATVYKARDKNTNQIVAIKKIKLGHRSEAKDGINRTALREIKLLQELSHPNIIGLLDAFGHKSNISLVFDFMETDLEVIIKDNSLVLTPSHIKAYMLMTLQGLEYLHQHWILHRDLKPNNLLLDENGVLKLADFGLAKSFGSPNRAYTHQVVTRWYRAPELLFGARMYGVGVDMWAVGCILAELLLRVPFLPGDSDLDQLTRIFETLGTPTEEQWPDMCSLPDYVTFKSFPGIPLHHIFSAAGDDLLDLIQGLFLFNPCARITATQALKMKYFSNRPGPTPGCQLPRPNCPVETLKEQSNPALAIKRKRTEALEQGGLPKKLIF
T1 sequence (P51946 whole entry partner): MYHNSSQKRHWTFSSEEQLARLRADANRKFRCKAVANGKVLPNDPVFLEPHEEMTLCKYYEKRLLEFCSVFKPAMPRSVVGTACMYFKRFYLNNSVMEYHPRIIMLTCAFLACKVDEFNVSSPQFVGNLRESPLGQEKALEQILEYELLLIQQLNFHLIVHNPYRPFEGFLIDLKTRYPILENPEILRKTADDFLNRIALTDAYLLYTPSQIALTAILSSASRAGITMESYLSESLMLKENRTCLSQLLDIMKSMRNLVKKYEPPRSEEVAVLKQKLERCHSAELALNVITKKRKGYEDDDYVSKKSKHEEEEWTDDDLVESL
T1 sequence (P51948 whole entry partner): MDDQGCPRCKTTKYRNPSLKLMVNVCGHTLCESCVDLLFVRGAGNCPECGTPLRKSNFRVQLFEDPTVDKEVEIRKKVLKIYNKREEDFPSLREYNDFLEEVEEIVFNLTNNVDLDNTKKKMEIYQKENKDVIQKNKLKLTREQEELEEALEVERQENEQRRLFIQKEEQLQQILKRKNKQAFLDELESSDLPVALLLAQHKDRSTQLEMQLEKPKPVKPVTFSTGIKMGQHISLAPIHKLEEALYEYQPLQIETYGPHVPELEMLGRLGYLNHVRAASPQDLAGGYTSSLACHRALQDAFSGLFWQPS

Row | Structure (SMILES) | IC50 [1] | IC50 [2] | IC50 [3] | IC50 [4, 6] | IC50 [5] | IC50 ([4]; MOLM-13, 16 h)
1 | CC(=O)N[C@@H]1CCC[C@H](C(=O)Nc2cc(-c3cnn4c3CC(C)(C)C4)c(Cl)cn2)C1 [AZD4573, reference compound] | 31.4 nM | 18.6 nM | 8.3 nM | 17.1 nM | – | –
2 | COc1cc(F)ccc1-c1cc(Nc2cc(CS(C)(=N)=O)ccn2)ncc1F (centres unmarked) [BAY1251152, reference compound] | 4290 nM | 811 nM | 570 nM | 118 nM | – | –
3 | CC(=O)NC[C@H]1CCC(F)(F)CN1C(=O)c1nc(Nc2cc(C#N)ccn2)ccc1C [Compound 1, (R)—N-((1-(6-((4-cyanopyridin-2-yl)amino)-3-methylpyridine-2-carbonyl)-5,5-difluoropiperidin-2-yl)methyl)acetamide] | 1950 nM | 36.7 nM | – | 24.8 nM | 4.9 nM | –
4 | CC(=O)NC[C@H]1CCC(F)(F)CN1C(=O)c1nc(Nc2cc(OC(F)(F)F)ccn2)ccc1C [Compound 5, (R)—N-((5,5-difluoro-1-(3-methyl-6-((4-(trifluoromethoxy)pyridin-2-yl)amino)pyridine-2-carbonyl)piperidin-2-yl)methyl)acetamide] | 2600 nM | 217 nM | 350 nM | 27.9 nM | 5.8 nM | –
5 | CC(=O)NC[C@H]1CCC(F)(F)CN1C(=O)c1nc(Nc2cc(OC(F)F)ccn2)ccc1C [Compound 11, (R)—N-((1-(6-((4-(difluoromethoxy)pyridin-2-yl)amino)-3-methylpyridine-2-carbonyl)-5,5-difluoropiperidin-2-yl)methyl)acetamide] | 4350 nM | 368 nM | 755 nM | 45.3 nM | 5.1 nM | –
6 | CC(=O)NC[C@H]1CCC(F)(F)CN1C(=O)c1nc(Nc2cc([N+](=O)[O-])ccn2)ccc1C [Compound 19, (R)—N-((5,5-difluoro-1-(3-methyl-6-((4-nitropyridin-2-yl)amino)pyridine-2-carbonyl)piperidin-2-yl)methyl)acetamide] | 7780 nM | 48.7 nM | 106 nM | 24.2 nM | 9 nM | –
7 | CC(=O)NC[C@H]1CCC(F)(F)CN1C(=O)c1nc(Nc2cc(Cl)ccn2)ccc1C [Compound 24, (R)—N-((1-(6-((4-chloropyridin-2-yl)amino)-3-methylpyridine-2-carbonyl)-5,5-difluoropiperidin-2-yl)methyl)acetamide] | 8760 nM | 408 nM | > 10000 nM | 70.9 nM | 7.1 nM | –
8 | CC(=O)NC[C@H]1CCC(F)(F)CN1C(=O)c1nc(Nc2cc(C(F)F)ccn2)ccc1C [Compound 27, (R)—N-((1-(6-((4-(difluoromethyl)pyridin-2-yl)amino)-3-methylpyridine-2-carbonyl)-5,5-difluoropiperidin-2-yl)methyl)acetamide] | 4570 nM | 144 nM | 426 nM | 22.1 nM | 5.8 nM | –
9 | CC(=O)NC[C@H]1CCC(F)(F)CN1C(=O)c1nc(Nc2cc(C(F)(F)F)ccn2)ccc1C [Compound 30, (R)—N-((5,5-difluoro-1-(3-methyl-6-((4-(trifluoromethyl)pyridin-2-yl)amino)pyridine-2-carbonyl)piperidin-2-yl)methyl)acetamide] | 3180 nM | 99.3 nM | 291 nM | 11.3 nM | 11.7 nM | –
10 | Cc1ccc(Nc2cc(OC(F)(F)F)ccn2)nc1C(=O)N1CC(F)(F)CC[C@@H]1CN [Compound 34, (R)-(2-(aminomethyl)-5,5-difluoropiperidin-1-yl)(3-methyl-6-((4-(trifluoromethoxy)pyridin-2-yl)amino)pyridin-2-yl)methanone] | 479 nM | 30 nM | 261 nM | 63.1 nM | 3 nM | –
11 | COC(=O)c1ccnc(Nc2ccc(C)c(C(=O)N3CC(F)(F)CC[C@@H]3CNC(C)=O)n2)c1 [Compound 56, (R)-2-((6-(2-(acetamidomethyl)-5,5-difluoropiperidine-1-carbonyl)-5-methylpyridin-2-yl)amino)methyl isonicotinate] | – | 924 nM | 3750 nM | – | 7.7 nM | 180 nM
12 | CC(=O)N[C@@H]1C[C@H](Nc2nc(Nc3cc(OC(F)(F)F)ccn3)ccc2C)CC(F)(F)C1 [Compound 60, N-((1R,5S)-3,3-difluoro-5-((3-methyl-6-((4-(trifluoromethoxy)pyridin-2-yl)amino)pyridin-2-yl)amino)cyclohexyl)acetamide] | – | 797 nM | – | 894 nM | 70.5 nM | –
13 | CC(=O)NC[C@H]1CCC(F)(F)CN1C(=O)c1nc(Nc2cc(OC(F)(F)F)ccn2)ccc1F [Compound 64, (R)—N-((5,5-difluoro-1-(3-fluoro-6-((4-(trifluoromethoxy)pyridin-2-yl)amino)pyridine-2-carbonyl)piperidin-2-yl)methyl)acetamide] | – | 120 nM | – | 120 nM | 6.3 nM | –
14 | NC[C@H]1CCC(F)(F)CN1C(=O)c1nc(Nc2cc(OC(F)(F)F)ccn2)ccc1F [Compound 67, (R)-(2-(aminomethyl)-5,5-difluoropiperidin-1-yl)(3-fluoro-6-((4-(trifluoromethoxy)pyridin-2-yl)amino)pyridin-2-yl)methanone] | 656 nM | 61.2 nM | 140 nM | 66.8 nM | 6.8 nM | –
15 | CC(=O)NC[C@H]1CCC(F)(F)CN1C(=O)c1cccc(Nc2cc(OC(F)(F)F)ccn2)n1 [Compound 80, (R)—N-((5,5-difluoro-1-(6-((4-(trifluoromethoxy)pyridin-2-yl)amino)pyridine-2-carbonyl)piperidin-2-yl)methyl)acetamide] | – | 258 nM | – | 198 nM | 7.2 nM | –
16 | CC(=O)NC[C@H]1CCC(F)(F)CN1C(=O)c1nc(Nc2cc(OC(F)(F)F)ccn2)ccc1Cl [Compound 84, (R)—N-((1-(3-chloro-6-((4-(trifluoromethoxy)pyridin-2-yl)amino)pyridine-2-carbonyl)-5,5-difluoropiperidin-2-yl)methyl)acetamide] | – | 577 nM | – | – | 6.2 nM | 58.6 nM
